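Five compound concentrations were applied to cells in 96-well plates for 48 hours; endpoints were derived by simple linear interpolation of the resulting dose-response curve. TGI: concentration producing complete growth inhibition.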
What was measured:
Assay in all cases: NCI tumour cell line growth inhibition, 48 h
RXF 393 renal = test system: RXF 393 renal
KM12 colon = test system: KM12 colon
MALME-3M melanoma = test system: MALME-3M melanoma
K-562 leukemia = test system: K-562 leukemia
A549 NSCLC = test system: A549 NSCLC
SK-MEL-5 melanoma = test system: SK-MEL-5 melanoma
CCRF-CEM leukemia = test system: CCRF-CEM leukemia
OVCAR-8 ovarian = test system: OVCAR-8 ovarian
UO-31 renal = test system: UO-31 renal
CAKI-1 renal = test system: CAKI-1 renal
XF 498 CNS = test system: XF 498 CNS
SF-295 CNS = test system: SF-295 CNS
LOX IMVI melanoma = test system: LOX IMVI melanoma
IGROV1 ovarian = test system: IGROV1 ovarian
HL-60(TB) leukemia = test system: HL-60(TB) leukemia
HOP-62 NSCLC = test system: HOP-62 NSCLC
OVCAR-3 ovarian = test system: OVCAR-3 ovarian
SN12C renal = test system: SN12C renal
OVCAR-5 ovarian = test system: OVCAR-5 ovarian
U251 CNS = test system: U251 CNS
NCI-H522 lung = test system: NCI-H522 lung
NCI-H226 lung = test system: NCI-H226 lung
SF-268 CNS = test system: SF-268 CNS
COLO 205 colon = test system: COLO 205 colon
EKVX NSCLC = test system: EKVX NSCLC
NCI-H460 lung = test system: NCI-H460 lung
LXFL 529 NSCLC = test system: LXFL 529 NSCLC
SK-OV-3 ovarian = test system: SK-OV-3 ovarian
RPMI-8226 leukemia = test system: RPMI-8226 leukemia
DMS 273 small cell lung = test system: DMS 273 small cell lung
HCT-15 colon = test system: HCT-15 colon
SR leukemia = test system: SR leukemia
TK-10 renal = test system: TK-10 renal
HOP-92 NSCLC = test system: HOP-92 NSCLC
KM20L2 colon = test system: KM20L2 colon
HCT-116 colon = test system: HCT-116 colon
HT29 colon = test system: HT29 colon
A498 renal = test system: A498 renal
HCC-2998 colon = test system: HCC-2998 colon
786-0 renal = test system: 786-0 renal
SNB-19 CNS = test system: SNB-19 CNS
SNB-75 CNS = test system: SNB-75 CNS
UACC-62 melanoma = test system: UACC-62 melanoma
DMS 114 small cell lung = test system: DMS 114 small cell lung
SF-539 CNS = test system: SF-539 CNS
HOP-18 NSCLC = test system: HOP-18 NSCLC
DLD-1 colon = test system: DLD-1 colon
OVCAR-4 ovarian = test system: OVCAR-4 ovarian
M14 melanoma = test system: M14 melanoma
NCI-H23 lung = test system: NCI-H23 lung
MOLT-4 leukemia = test system: MOLT-4 leukemia
SW-620 colon = test system: SW-620 colon
SNB-78 CNS = test system: SNB-78 CNS
UACC-257 melanoma = test system: UACC-257 melanoma
M19-MEL melanoma = test system: M19-MEL melanoma
ACHN renal = test system: ACHN renal
SK-MEL-2 melanoma = test system: SK-MEL-2 melanoma
SK-MEL-28 melanoma = test system: SK-MEL-28 melanoma
RXF-631 renal = test system: RXF-631 renal

Measured: TGI

N#CC(C#N)=c1[nH]c2cccc3c2-c2c(cccc2c3=C(C#N)C#N)[nH]1
> 100 µM: RXF 393 renal | KM12 colon | MALME-3M melanoma | K-562 leukemia | A549 NSCLC | SK-MEL-5 melanoma | CCRF-CEM leukemia | OVCAR-8 ovarian | UO-31 renal | CAKI-1 renal | XF 498 CNS | SF-295 CNS | LOX IMVI melanoma | IGROV1 ovarian | HL-60(TB) leukemia | HOP-62 NSCLC | OVCAR-3 ovarian | SN12C renal | OVCAR-5 ovarian | U251 CNS | NCI-H522 lung | NCI-H226 lung | SF-268 CNS | COLO 205 colon | EKVX NSCLC | NCI-H460 lung | LXFL 529 NSCLC | SK-OV-3 ovarian | RPMI-8226 leukemia | DMS 273 small cell lung | HCT-15 colon | SR leukemia | TK-10 renal | HOP-92 NSCLC | KM20L2 colon | HCT-116 colon | HT29 colon | A498 renal | HCC-2998 colon | 786-0 renal | SNB-19 CNS | SNB-75 CNS | UACC-62 melanoma | DMS 114 small cell lung | SF-539 CNS | HOP-18 NSCLC | DLD-1 colon | OVCAR-4 ovarian | M14 melanoma | NCI-H23 lung | MOLT-4 leukemia | SW-620 colon | SNB-78 CNS | UACC-257 melanoma

CN=NN(C)C(=O)NC
> 100 µM: RXF 393 renal | KM12 colon | MALME-3M melanoma | K-562 leukemia | A549 NSCLC | M19-MEL melanoma | SK-MEL-5 melanoma | CCRF-CEM leukemia | OVCAR-8 ovarian | UO-31 renal | CAKI-1 renal | ACHN renal | SK-MEL-2 melanoma | SF-295 CNS | LOX IMVI melanoma | IGROV1 ovarian | HL-60(TB) leukemia | HOP-62 NSCLC | OVCAR-3 ovarian | SN12C renal | OVCAR-5 ovarian | U251 CNS | NCI-H522 lung | SF-268 CNS | SK-MEL-28 melanoma | COLO 205 colon | NCI-H460 lung | LXFL 529 NSCLC | SK-OV-3 ovarian | RPMI-8226 leukemia | HCT-15 colon | SR leukemia | TK-10 renal | HOP-92 NSCLC | KM20L2 colon | HCT-116 colon | HT29 colon | A498 renal | HCC-2998 colon | 786-0 renal | SNB-19 CNS | SNB-75 CNS | UACC-62 melanoma | DMS 114 small cell lung | SF-539 CNS | HOP-18 NSCLC | DLD-1 colon | OVCAR-4 ovarian | M14 melanoma | NCI-H23 lung | MOLT-4 leukemia | SW-620 colon

CCOC(=O)C(N=Nc1ccc(S(N)(=O)=O)cc1)C(C)=O (stereo not given)
> 100 µM: RXF 393 renal | KM12 colon | MALME-3M melanoma | K-562 leukemia | A549 NSCLC | M19-MEL melanoma | SK-MEL-5 melanoma | CCRF-CEM leukemia | OVCAR-8 ovarian | UO-31 renal | CAKI-1 renal | XF 498 CNS | ACHN renal | SK-MEL-2 melanoma | SF-295 CNS | LOX IMVI melanoma | IGROV1 ovarian | HL-60(TB) leukemia | HOP-62 NSCLC | OVCAR-3 ovarian | SN12C renal | OVCAR-5 ovarian | U251 CNS | NCI-H522 lung | NCI-H226 lung | SF-268 CNS | SK-MEL-28 melanoma | COLO 205 colon | EKVX NSCLC | NCI-H460 lung | LXFL 529 NSCLC | SK-OV-3 ovarian | RXF-631 renal | RPMI-8226 leukemia | DMS 273 small cell lung | HCT-15 colon | SR leukemia | TK-10 renal | HOP-92 NSCLC | KM20L2 colon | HCT-116 colon | HT29 colon | A498 renal | HCC-2998 colon | 786-0 renal | SNB-19 CNS | SNB-75 CNS | UACC-62 melanoma | DMS 114 small cell lung | SF-539 CNS | HOP-18 NSCLC | DLD-1 colon | OVCAR-4 ovarian | M14 melanoma | NCI-H23 lung | MOLT-4 leukemia | SW-620 colon | SNB-78 CNS | UACC-257 melanoma

— PubChem BioAssay (NCI)
